Measurements taken from patent US6372297B1, “Wood preservative oxathiazines” (Uniroyal Chemical Company, Inc., priority 1993, dated 2002).

How the values were obtained:
[1] = system: mixed spore suspension of blue-stain fungus and molds; test: Activity against blue-stain fungi and molds in a mold cabinet test (BS3900: Part G6); set-up: key: 0: No growth; Trace of growth of up to 1% coverage of the test inoculated area; 2: Growth covering between 1 and 10% of the inoculated test area; Growth covering between 10 and 30% of the inoculated test area; 4: Growth covering between 30 and 70% of the inoculated test area; 5: Growth covering more than 70t of the inoculated test area
Protocol: Using the methods described in BS3900: Part G6: 1989, British Standard Methods of test for paints, “Assessment of resistance to fungal growth”, representative compounds of this invention were tested for activity against blue-stain fungus and molds in a mold cabinet test. In brief, sticks of Scots pine (Pinus sylvestris) measuring 75×100×10 mm, were painted, allowed to dry, and sterilized by […] (1.2 mRad). […] The sticks were then with each solution. The inoculation consisted of dipping the sticks in a mixed spore suspension, then placing them in a mold chamber and incubating them for 12 weeks. The surfaces were evaluated according the following score system: 0: No growth 1: […] 2: […] 3: […] 4. […] 5. Growth covering more than 70% of the inoculated test area.

[2] = system: mixed spore suspension: Aureobasidium pullulans, Aspergillus amstelodami, Ceratocystis pilifera, Cladosporium sp., Penicillium sp., Sclerophomas entoxylina …; test: Control of molds and sapstain fungi in mini-board test; set-up: key to Surface score of treated mini-boards, 3 week incubation, 1500 ppm / Surface score of treated mini-boards, 3 week incubation, 2500 ppm: 0: Free of fungal growth; 1: Traces of fungal growth; 2: Little fungal growth; 3: Moderate fungal growth; 4: Vigorous to maximum growth (all surfaces covered with fungal growth)
From the text: Representative compounds of this invention to be tested, were suspended in an aqueous solution containing 7.5% GENAPOL X 080™ (Hoechst-Celanese Corporation), and 20% propylene glycol monomethyl ether, to prepare the test solutions. […]
Deep frozen boards (300×50×10 mm) of freshly felled sapwood of Pinus sylvestrus (mini-boards) were thawed at room temperature. One half of each mini-board was immersed in a test solution for 20 seconds. The mini-boards were then sprayed with mixed spore suspension containing the following fungi:
Sclerophomas entoxylina, and
and stored in incubation boxes at 25° C. and at 100% relative humidity, for three weeks. For each compound tested, each concentration of test solution was applied to five different mini-boards.
The efficacy of the test compounds was determined by comparing the fungal growth on both the treated and untreated parts of the mini-boards.
The degree of infection was scored according to the following scale:
1=Traces of fungal growth
4=Vigorous to maximum growth (all surfaces covered with fungal growth)

[3] = system: blue-stain fungi and molds; test: Activity against blue-stain fungi and molds on a stick test on vermiculite (paint film); set-up: key to Surface score of wooden sticks treated with paint formulation, C. cladosporioides / Surface score of wooden sticks treated with paint formulation, P. purpurogenum / Surface score of wooden sticks treated with paint formulation, P. violacea / Surface score of wooden sticks treated with paint formulation, R rubra (y) / Surface score of wooden sticks treated with paint formulation, S. chartarum / Surface score of wooden sticks treated with paint formulation, A. versicolor / Surface score of wooden sticks treated with paint formulation, A. pullulans: 0: No growth; Trace of growth of up to 1% coverage of the test inoculated area; 2: Growth covering between 1 and 10% of the inoculated test area; Growth covering between 10 and 30% of the inoculated test area; 4: Growth covering between 30 and 70% of the inoculated test area; 5: Growth covering more than 70t of the inoculated test area; conditions: 12 weeks on vermiculite; for Surface score of wooden sticks treated with paint formulation, R rubra (y): R rubra (yeast)
Protocol: Beech sticks (73×18×2 mm) Fagus sylvatica were painted, allowed to dry, and sterilized by γ-radiation (1.2 mRad). […] The coated sticks prepared above were then dipped in a spore suspension of pure culture of each fungus. Seven sticks each were placed in autoclaved Petri dishes (200 mm in diameter, 30 mm in height) containing 300 ml of vermiculite and 120 ml of water, and incubated for 12 weeks. The surfaces of the sticks were then examined for the growth of fungus and were evaluated according to the following scoring system: 0: No growth 1: […] 2: […] 3: […] 4. […] 5. Growth covering more than 70t of the inoculated test area.

| SMILES | Surface score in a paint formulation in a mold cabinet test, 6 weeks ([1]; 0.15% in water-based paint) | Surface score in a paint formulation in a mold cabinet test, 12 weeks ([1]; 0.15% in water-based paint) | Surface score in a paint formulation in a mold cabinet test, 6 weeks ([1]; 0.3% in water-based paint) | Surface score in a paint formulation in a mold cabinet test, 12 weeks ([1]; 0.3% in water-based paint) | Surface score of treated mini-boards, 3 week incubation, 1500 ppm [2] | Surface score of treated mini-boards, 6 week incubation, 1500 ppm [2] | Surface score of treated mini-boards, 3 week incubation, 2500 ppm [2] | Surface score of treated mini-boards, 6 week incubation, 2500 ppm [2] | Surface score of wooden sticks treated with paint formulation, A. pullulans ([3]; 0.15% a.i. in paint) | Surface score of wooden sticks treated with paint formulation, A. pullulans ([3]; 0.3% a.i. in paint) | Surface score of wooden sticks treated with paint formulation, A. versicolor ([3]; 0.15% a.i. in paint) | Surface score of wooden sticks treated with paint formulation, A. versicolor ([3]; 0.3% a.i. in paint) | Surface score of wooden sticks treated with paint formulation, C. cladosporioides ([3]; 0.15% a.i. in paint) | Surface score of wooden sticks treated with paint formulation, C. cladosporioides ([3]; 0.3% a.i. in paint) | Surface score of wooden sticks treated with paint formulation, P. purpurogenum ([3]; 0.15% a.i. in paint) | Surface score of wooden sticks treated with paint formulation, P. purpurogenum ([3]; 0.3% a.i. in paint) | Surface score of wooden sticks treated with paint formulation, P. violacea ([3]; 0.15% a.i. in paint) | Surface score of wooden sticks treated with paint formulation, P. violacea ([3]; 0.3% a.i. in paint) | Surface score of wooden sticks treated with paint formulation, R rubra (y) ([3]; 0.15% a.i. in paint) | Surface score of wooden sticks treated with paint formulation, R rubra (y) ([3]; 0.3% a.i. in paint) | other results |
| --- | --- | --- | --- | --- | --- | --- | --- | --- | --- | --- | --- | --- | --- | --- | --- | --- | --- | --- | --- | --- | --- |
| [O-][S+]1CCON=C1c1ccc(Br)s1 (stereo not drawn) [Compound 36] | 2.5 | 4.5 | 2.5 | 4.0 | 0.2 | 2.6 | 0 | 1.4 | 0 | 0 | 0 | 0 | 0 | 0 | 1 (Trace of growth of up to 1% coverage of the test inoculated area) | 1 (Trace of growth of up to 1% coverage of the test inoculated area) | 3 (Growth covering between 10 and 30% of the inoculated test area) | 1 (Trace of growth of up to 1% coverage of the test inoculated area) | 0 | 0 | Surface score of wooden sticks treated with paint formulation, S. chartarum ([3]; 0.15% a.i. in paint): 0; Surface score of wooden sticks treated with paint formulation, S. chartarum ([3]; 0.3% a.i. in paint): 0; Surface score of wooden sticks treated with paint formulation, U. atrum ([3]; 0.15% a.i. in paint): 3 (Growth covering between 10 and 30% of the inoculated test area); Surface score of wooden sticks treated with paint formulation, U. atrum ([3]; 0.3% a.i. in paint): 1 (Trace of growth of up to 1% coverage of the test inoculated area) |
| Cc1ccsc1C1=NOCCS1(=O)=O [Compound 37] | 4.0 | 5.0 | 0 | 0 | 0 | 0.8 | 0 | 0.4 | 3 (Growth covering between 10 and 30% of the inoculated test area) | 2 (Growth covering between 1 and 10% of the inoculated test area) | 2 (Growth covering between 1 and 10% of the inoculated test area) | 1 (Trace of growth of up to 1% coverage of the test inoculated area) | 3 (Growth covering between 10 and 30% of the inoculated test area) | 0 | 3 (Growth covering between 10 and 30% of the inoculated test area) | 1 (Trace of growth of up to 1% coverage of the test inoculated area) | 5 (Growth covering more than 70t of the inoculated test area) | 4 (Growth covering between 30 and 70% of the inoculated test area) | 4 (Growth covering between 30 and 70% of the inoculated test area) | 3 (Growth covering between 10 and 30% of the inoculated test area) | Surface score of wooden sticks treated with paint formulation, S. chartarum ([3]; 0.15% a.i. in paint): 1 (Trace of growth of up to 1% coverage of the test inoculated area); Surface score of wooden sticks treated with paint formulation, S. chartarum ([3]; 0.3% a.i. in paint): 0; Surface score of wooden sticks treated with paint formulation, U. atrum ([3]; 0.15% a.i. in paint): 4 (Growth covering between 30 and 70% of the inoculated test area); Surface score of wooden sticks treated with paint formulation, U. atrum ([3]; 0.3% a.i. in paint): 3 (Growth covering between 10 and 30% of the inoculated test area) |
